# Experimental data as given in patent publication US20260042764A1, “COMPOSITIONS AND METHODS FOR INHIBITION OF KRAS” (TheRas, Inc., priority 2022, published 2026).
# Where two headings read alike, the source gives them in different places.
# Columns and labels:
# H358 cells (KRAS G12C) = assay: Cell-based pERK HTRF assay in H358 cells (Biological Example 5)
# Experimental: (§1) Biological Example 5: Cell-based PERK HTRF assay in AsPC-1, SW1900, HPAC, Capan-2, RKN, H358, HCT116, KP-2, H1573, A549, MKN1, and HT1080 cells
# (§2) The inhibition of ERK phosphorylation, as measured using the HTRF Advanced Phospho-ERK 1/2 (Thr202/Tyr204) Detection Assay kit (Perkin Elmer), was used to determine the effectiveness of test compounds in disrupting KRAS-driven protein/effector signaling in cells.
# (§3) On day 1, cells were seeded into 96-well plates at 2.5×10^4 cells/well in 100 μL of complete growth media supplemented with 10% fetal bovine serum (FBS) and incubated at 37° C., in the presence of 5% CO2.
# (§4) On day 2, cells were treated with compounds diluted in DMSO at 0.25% final DMSO concentration. Compounds were dosed in a 9-point concentration curve with three-fold dilution between concentrations. Cells were incubated in the presence of compound for two hours at 37° C. Following this treatment period, cells were harvested by aspirating the media, adding 40 μL of kit-supplied 1x lysis buffer per well, and shaking for 30 minutes at 250 rpm at room temperature.
# (§5) Following cell lysis, samples were homogenized by pipetting up and down twenty times and 16 μL of cell lysate per well was transferred from the 96-well cell culture plate to two wells of a 384-well detection plate. A complete detection buffer was prepared by diluting D2 and Eu Cryptate antibodies 1:20 in kit-provided detection solution, 4 μL of complete detection buffer was then added to each well with lysate. Plates were incubated with gentle rocking for 24 hours at 4° C.
# (§6) Following this incubation period, plates were centrifuged at 500×g for one minute and analyzed on a CLARIOstar plate reader. Data was imported into Microsoft Excel and the signal from the 665 nm channel was divided by the signal from the 620 nm channel. % pERK was calculated as: […]
# (§7) Data was imported to the Prism software package (Graphpad) and EC50 values were calculated using the log (inhibitor) vs, response—variable slopc (Four parameters) model.
# A549 cells (KRAS G12S) [1] = assay: Cell-based pERK HTRF assay in A549 cells (Biological Example 5)
# Experimental: as §1, §2, §3, §4, §5, §6, §7
# HT1080 cells (NRAS) [2] = assay: 3D Cell viability assay in HT1080 cells (Biological Example 6); format: cell-based; details: HT1080 (NRAS) spheroids, 72 hours
# Experimental: (§8) Biological Example 6: 3D Cell viability assay in AsPC-1, SW1900, HPAC, Capan-2, RKN, H358, HCT116, KP-2, H1573, A549, MKN1, and HT1080 cells
# (§9) The inhibition of cellular viability as a result of test compound treatment in a spheroid assay was measured using the CellTiter-Glow 3D Cell Viability Assay (Promega).
# (§10) On Day 1, 1000 cells per well were seeded in 150 μL of complete growth media supplemented with 10% fetal bovine serum (FBS) and incubated at 37° C., in the presence of 5% CO2 in 96-well ultra-low attachment microplates (Corning) for 48 hours undisturbed to allow spheroids to form.
# (§11) Following spheroid formation, cells were treated with compounds diluted in DMSO at 0.25% final DMSO concentration. Compounds were dosed in a 9-point concentration curve with three-fold dilution between concentrations. Cells were incubated in the presence of compound for 72 hours at 37° C., in the presence of 5% CO2.
# (§12) Following this incubation period, the kit-provided CTG reagent was allowed to equilibrate for 30 minutes at room temperature, 150 μL of equilibrated CTG reagent was added to each well, and the plate was sealed before shaking at 250 rpm for 10 minutes at room temperature to lyse the cells, 150 μL of lysate per well was transferred to a 96-well plate and luminescence was read on a CLARIOstar plate reader.
# (§13) Data was imported into the Prism software package (Graphpad) and EC50 values were calculated using the log (inhibitor) vs, response—variable slope (Four parameters) model.
# H1573 cells (KRAS G12A) [3] = assay: 3D Cell viability assay in H1573 cells (Biological Example 6); format: cell-based; details: H1573 (KRAS G12A) spheroids, 72 hours
# Experimental: as §8, §9, §10, §11, §12, §13
# HPAC cells (KRAS G12D) [4] = assay: Cell-based pERK HTRF assay in HPAC cells (Biological Example 5)
# Experimental: as §1, §2, §3, §4, §5, §6, §7
# A549 cells (KRAS G12S) [5] = assay: 3D Cell viability assay in A549 cells (Biological Example 6); format: cell-based; details: A549 (KRAS G12S) spheroids, 72 hours
# Experimental: as §8, §9, §10, §11, §12, §13
# [6] = tested on: Capan-2 cells (KRAS G12V); assay: 3D Cell viability assay in Capan-2 cells (Biological Example 6); format: cell-based; details: Capan-2 (KRAS G12V) spheroids, 72 hours
# Experimental: as §8, §9, §10, §11, §12, §13
# H1573 cells (KRAS G12A) [7] = assay: Cell-based pERK HTRF assay in H1573 cells (Biological Example 5)
# Experimental: as §1, §2, §3, §4, §5, §6, §7
# HCT116 cells (KRAS G13D) = assay: Cell-based pERK HTRF assay in HCT116 cells (Biological Example 5)
# Experimental: as §1, §2, §3, §4, §5, §6, §7
# HPAC cells (KRAS G12D) [8] = assay: 3D Cell viability assay in HPAC cells (Biological Example 6); format: cell-based; details: HPAC (KRAS G12D) spheroids
# Experimental: as §8, §9, §10, §11, §12, §13
# HT1080 cells (NRAS) [9] = assay: Cell-based pERK HTRF assay in HT1080 cells (Biological Example 5)
# Experimental: as §1, §2, §3, §4, §5, §6, §7
# RKN cells (KRAS G12V) [10] = assay: Cell-based pERK HTRF assay in RKN cells (Biological Example 5)
# Experimental: as §1, §2, §3, §4, §5, §6, §7
# RKN cells (KRAS G12V) [11] = assay: 3D Cell viability assay in RKN cells (Biological Example 6); format: cell-based; details: RKN (KRAS G12V) spheroids, 72 hours
# Experimental: as §8, §9, §10, §11, §12, §13
# SW1900 cells (KRAS G12D) = assay: 3D Cell viability assay in SW1900 cells (Biological Example 6); format: cell-based; details: Homo sapiens; SW1990 (text: SW1900, KRAS G12D) spheroids, 72 hours
# Experimental: as §8, §9, §10, §11, §12, §13
# [12] = Homo sapiens, NCI-H358, H358 (KRAS G12C) cells
structure (smiles),measurement,setting,value
"N#Cc1c(N)sc2c(F)ccc(-c3c(C(F)(F)F)cc4c(N5CCOCC5)nc(OC[C@@]56CCCN5C[C@H](F)C6)nc4c3F)c12 (single isomer, unassigned) [Compound 198]",IC50,H358 cells (KRAS G12C); [12],≤ 100 nM
same,IC50,A549 cells (KRAS G12S) [1]; Homo sapiens,100 to 1000 nM
same,IC50,"HT1080 cells (NRAS) [2]; Homo sapiens, HT-1080",> 1000 nM
same,IC50,"H1573 cells (KRAS G12A) [3]; Homo sapiens, NCI-H1573",≤ 100 nM
same,IC50,"HPAC cells (KRAS G12D) [4]; Homo sapiens, HPAC",100 to 1000 nM
same,IC50,A549 cells (KRAS G12S) [5]; Homo sapiens,≤ 100 nM
same,IC50,[6]; Homo sapiens,≤ 100 nM
same,IC50,"H1573 cells (KRAS G12A) [7]; Homo sapiens, NCI-H1573",≤ 100 nM
same,IC50,"HCT116 cells (KRAS G13D); Homo sapiens, HCT-116",≤ 100 nM
same,IC50,"HPAC cells (KRAS G12D) [8]; Homo sapiens, HPAC, 72 h",100 to 1000 nM
same,IC50,"HT1080 cells (NRAS) [9]; Homo sapiens, HT-1080",> 1000 nM
"CN(c1nc(OC[C@@]23CCCN2C[C@H](F)C3)nc2c(F)c(-c3ccc(F)c4sc(N)c(C#N)c34)c(C(F)(F)F)cc12)[C@H]1C[C@@H](O)C1 [Compound 19, 2-amino-7-fluoro-4-((S)-8-fluoro-2-(((2R,7aS)-2-fluorotetrahydro-1H-pyrrolizin-7a(5H)-yl)methoxy)-4-(((1s,3R)-3-hydroxycyclobutyl)(methyl)amino)-6-(trifluoromethyl)quinazolin-7-yl)benzo[b]thiophene-3-carbonitrile]",IC50,H358 cells (KRAS G12C); H358 (KRAS G12C) cells,≤ 100 nM
same,IC50,A549 cells (KRAS G12S) [1],100 to 1000 nM
same,IC50,HT1080 cells (NRAS) [2],> 1000 nM
same,IC50,RKN cells (KRAS G12V) [10],≤ 100 nM
same,IC50,H1573 cells (KRAS G12A) [3],≤ 100 nM
same,IC50,HPAC cells (KRAS G12D) [4],≤ 100 nM
same,IC50,RKN cells (KRAS G12V) [11],≤ 100 nM
same,IC50,A549 cells (KRAS G12S) [5],100 to 1000 nM
same,IC50,[6],100 to 1000 nM
same,IC50,H1573 cells (KRAS G12A) [7],≤ 100 nM
same,IC50,HCT116 cells (KRAS G13D),≤ 100 nM
same,IC50,HPAC cells (KRAS G12D) [8]; 72 hours,100 to 1000 nM
same,IC50,HT1080 cells (NRAS) [9],> 1000 nM
N#Cc1c(N)sc2c(F)ccc(-c3c(C(F)(F)F)cc4c(N5CC6CC5CO6)nc(OC[C@@]56CCCN5C[C@H](F)C6)nc4c3F)c12 (some centres unmarked) [Compound 147],IC50,"HT1080 cells (NRAS) [2]; Homo sapiens, HT-1080",> 1000 nM
same,IC50,"H1573 cells (KRAS G12A) [3]; Homo sapiens, NCI-H1573",≤ 100 nM
same,IC50,A549 cells (KRAS G12S) [5]; Homo sapiens,≤ 100 nM
same,IC50,"HPAC cells (KRAS G12D) [8]; Homo sapiens, HPAC, 72 h",100 to 1000 nM
same,IC50,SW1900 cells (KRAS G12D),100 to 1000 nM
N#Cc1c(N)sc2c(F)ccc(-c3c(C(F)(F)F)cc4c(N5CCCOCC5)nc(OC[C@@]56CCCN5C[C@H](F)C6)nc4c3F)c12 [Compound 232],IC50,H358 cells (KRAS G12C); [12],≤ 100 nM
same,IC50,A549 cells (KRAS G12S) [1]; Homo sapiens,100 to 1000 nM
same,IC50,"HT1080 cells (NRAS) [2]; Homo sapiens, HT-1080",> 1000 nM
same,IC50,"H1573 cells (KRAS G12A) [3]; Homo sapiens, NCI-H1573",≤ 100 nM
same,IC50,"HPAC cells (KRAS G12D) [4]; Homo sapiens, HPAC",≤ 100 nM
same,IC50,A549 cells (KRAS G12S) [5]; Homo sapiens,≤ 100 nM
same,IC50,"H1573 cells (KRAS G12A) [7]; Homo sapiens, NCI-H1573",≤ 100 nM
same,IC50,"HCT116 cells (KRAS G13D); Homo sapiens, HCT-116",≤ 100 nM
same,IC50,"HPAC cells (KRAS G12D) [8]; Homo sapiens, HPAC, 72 h",> 1000 nM
same,IC50,SW1900 cells (KRAS G12D),≤ 100 nM
same,IC50,"HT1080 cells (NRAS) [9]; Homo sapiens, HT-1080",> 1000 nM
N#Cc1c(N)sc2c(F)ccc(-c3c(C(F)(F)F)cc4c(N5CCC[C@@H](O)C5)nc(OC[C@@]56CCCN5C[C@H](F)C6)nc4c3F)c12 [Compound 234],IC50,H358 cells (KRAS G12C); [12],≤ 100 nM
same,IC50,A549 cells (KRAS G12S) [1]; Homo sapiens,≤ 100 nM
same,IC50,"HT1080 cells (NRAS) [2]; Homo sapiens, HT-1080",> 1000 nM
same,IC50,"H1573 cells (KRAS G12A) [3]; Homo sapiens, NCI-H1573",≤ 100 nM
same,IC50,"HPAC cells (KRAS G12D) [4]; Homo sapiens, HPAC",100 to 1000 nM
same,IC50,A549 cells (KRAS G12S) [5]; Homo sapiens,≤ 100 nM
same,IC50,"H1573 cells (KRAS G12A) [7]; Homo sapiens, NCI-H1573",≤ 100 nM
same,IC50,"HCT116 cells (KRAS G13D); Homo sapiens, HCT-116",≤ 100 nM
same,IC50,"HPAC cells (KRAS G12D) [8]; Homo sapiens, HPAC, 72 h",> 1000 nM
same,IC50,SW1900 cells (KRAS G12D),≤ 100 nM
same,IC50,"HT1080 cells (NRAS) [9]; Homo sapiens, HT-1080",> 1000 nM
C[C@@H]1[C@H](N(C)c2nc(OC[C@@]34CCCN3C[C@H](F)C4)nc3c(F)c(-c4ccc(F)c5sc(N)c(C#N)c45)c(C(F)(F)F)cc23)CCN1C(=O)C1CC1 [Compound 258],IC50,H358 cells (KRAS G12C); [12],≤ 100 nM
same,IC50,A549 cells (KRAS G12S) [1]; Homo sapiens,≤ 100 nM
same,IC50,"HT1080 cells (NRAS) [2]; Homo sapiens, HT-1080",> 1000 nM
same,IC50,"H1573 cells (KRAS G12A) [3]; Homo sapiens, NCI-H1573",≤ 100 nM
same,IC50,"HPAC cells (KRAS G12D) [4]; Homo sapiens, HPAC",> 1000 nM
same,IC50,A549 cells (KRAS G12S) [5]; Homo sapiens,≤ 100 nM
same,IC50,"H1573 cells (KRAS G12A) [7]; Homo sapiens, NCI-H1573",≤ 100 nM
same,IC50,"HCT116 cells (KRAS G13D); Homo sapiens, HCT-116",≤ 100 nM
same,IC50,"HPAC cells (KRAS G12D) [8]; Homo sapiens, HPAC, 72 h",100 to 1000 nM
same,IC50,SW1900 cells (KRAS G12D),≤ 100 nM
same,IC50,"HT1080 cells (NRAS) [9]; Homo sapiens, HT-1080",> 1000 nM
